Experimental data taken from patent publication US20100056524A1, “Compound” (priority 2008, published 2010).
Where a name gives a salt, the structure may show the parent alone. Read-outs that look alike come from different tables or passages of the source.

Experiments:
MAPKAP-K2 = molecular target: T1, MAPKAP-K2 (Homo sapiens, UniProt P49137); experiment: MAPKAP-K2 protein kinase assay; format: biochemical; conditions: for remaining activity at 10 µM: 10 μM compound; for residual kinase activity MAPKAP-K2: 1 μm compound; for remaining activity at 1 µM: 1 μM compound
T1 construct: All protein kinases were of human origin and encoded full length proteins, unless indicated otherwise; made in house
T1 sequence (P49137 46-400 limits assumed): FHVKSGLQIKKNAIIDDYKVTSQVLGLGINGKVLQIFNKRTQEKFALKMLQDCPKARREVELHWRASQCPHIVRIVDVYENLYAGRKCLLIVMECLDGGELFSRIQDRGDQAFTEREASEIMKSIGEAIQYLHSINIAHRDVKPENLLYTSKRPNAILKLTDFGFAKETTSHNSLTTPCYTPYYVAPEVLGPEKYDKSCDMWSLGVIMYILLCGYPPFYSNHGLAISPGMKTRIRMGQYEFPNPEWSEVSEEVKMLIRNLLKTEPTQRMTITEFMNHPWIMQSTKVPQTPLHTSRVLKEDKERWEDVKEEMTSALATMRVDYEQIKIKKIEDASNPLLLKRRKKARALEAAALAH
Source text: (§1) All protein kinases were of human origin and encoded full length proteins, unless indicated otherwise. They were either expressed as glutathione S-transferase (GST) fusion proteins in Escherichia Coli or as hexahistidine (His6)-tagged proteins in insect Sf21 cells. GST fusion proteins were purified by affinity chromatography on glutathione-Sepharose, and His6-tagged proteins on nickel/nitriloacetate-agarose. The procedures for expressing some of the protein kinases used herein have been detailed previously.^8,9 The following sections outline the DNA vectors synthesised and the procedures used to express and purifying protein kinases that have not been reported previously.
(§2) All assays (25.5 μl) were carried out at room temperature (21° C.) and were linear with respect to time and enzyme concentration under the conditions used. Assays were performed for 30 min using Multidrop Micro reagent dispensers (Thermo Electron Corporation, Waltham, Mass. 02454, USA) in a 96-well format. The concentration of magnesium acetate in the assays was 10 mM and the [γ-33P] ATP (800 cpm/pmol) was used at 5, 20 or 50 μM as indicated, in order to be at or below the Km for ATP for each enzyme. Protein kinases assayed at 5 μM ATP were: —ERK1, ERK8, PKBα, MARK3, Aurora C. Protein kinases assayed at 20 μM ATP were: —JNK1, PDK1, CHK1, CHK2, CDK2 and Aurora B. Protein kinases assayed at 50 μM ATP were: —MNK2, IKKepsilon and TBK1.
(§3) The assays were initiated with MgATP, stopped by addition of 5 μl of 0.5 M orthophosphoric acid and spotted on to P81 filterplates using a unifilter harvester (PerkinElmer, Boston, Mass. 02118, USA). The IC50 values of inhibitors were determined after carrying out assays at 10 different concentrations of each compound.
(§4) Unless stated otherwise, enzymes were diluted in 50 mM Tris/HCl pH 7.5, 0.1 mM EGTA, 1 mg/ml BSA, 0.1% (v/v) 2-mercaptoethanol and assayed in 50 mM Tris/HCl pH 7.5, 0.1 mM EGTA, 0.1% (v/v) 2-mercaptoethanol.

MST2 = molecular target: T2, MST2 (Homo sapiens, UniProt Q13188); experiment: MST2 protein kinase assay; format: biochemical; conditions: for remaining activity at 10 µM: 10 μM compound; for residual kinase activity MST2: 1 μm compound; for remaining activity at 1 µM: 1 μM compound
T2 construct: All protein kinases were of human origin and encoded full length proteins, unless indicated otherwise; made in house
T2 sequence (Q13188 1-491): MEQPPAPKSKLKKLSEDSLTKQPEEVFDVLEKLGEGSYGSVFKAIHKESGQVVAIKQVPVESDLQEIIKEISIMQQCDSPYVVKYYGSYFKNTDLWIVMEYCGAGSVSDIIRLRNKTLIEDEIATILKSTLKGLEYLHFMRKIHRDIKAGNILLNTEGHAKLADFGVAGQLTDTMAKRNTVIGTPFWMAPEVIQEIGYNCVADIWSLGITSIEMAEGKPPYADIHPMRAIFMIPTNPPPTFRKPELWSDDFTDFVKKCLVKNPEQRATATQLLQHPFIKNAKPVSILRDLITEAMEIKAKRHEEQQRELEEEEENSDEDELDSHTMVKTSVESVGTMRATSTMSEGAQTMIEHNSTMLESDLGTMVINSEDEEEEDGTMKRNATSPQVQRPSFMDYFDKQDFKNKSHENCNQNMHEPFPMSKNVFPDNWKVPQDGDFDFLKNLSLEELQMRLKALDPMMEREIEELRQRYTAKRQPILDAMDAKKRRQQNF
Source text: as §1, §2, §3, §4

PRAK = molecular target: T3, PRAK (Homo sapiens, UniProt Q8IW41); experiment: PRAK protein kinase assay; format: biochemical; conditions: for remaining activity at 10 µM: 10 μM compound; for residual kinase activity PRAK: 1 μm compound; for remaining activity at 1 µM: 1 μM compound
T3 construct: All protein kinases were of human origin and encoded full length proteins, unless indicated otherwise; made in house
T3 sequence (Q8IW41 1-473): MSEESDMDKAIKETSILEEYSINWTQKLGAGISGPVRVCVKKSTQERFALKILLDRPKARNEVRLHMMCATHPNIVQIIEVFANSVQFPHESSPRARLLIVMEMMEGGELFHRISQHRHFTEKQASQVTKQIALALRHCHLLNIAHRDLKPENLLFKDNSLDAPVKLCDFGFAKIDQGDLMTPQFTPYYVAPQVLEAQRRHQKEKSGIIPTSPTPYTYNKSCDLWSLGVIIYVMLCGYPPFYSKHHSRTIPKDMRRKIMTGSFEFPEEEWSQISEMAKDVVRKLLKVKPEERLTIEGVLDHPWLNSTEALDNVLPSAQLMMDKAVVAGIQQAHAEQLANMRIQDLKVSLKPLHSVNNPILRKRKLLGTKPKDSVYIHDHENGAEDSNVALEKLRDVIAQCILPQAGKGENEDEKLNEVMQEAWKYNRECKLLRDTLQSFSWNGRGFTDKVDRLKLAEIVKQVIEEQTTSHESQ
Source text: as §1, §2, §3, §4

HIPK2 = molecular target: T4, HIPK2 (Homo sapiens, UniProt Q9H2X6); experiment: HIPK2 protein kinase assay; format: biochemical; conditions: for remaining activity at 10 µM: 10 μM compound; for residual kinase activity HIPK2: 1 μm compound; for remaining activity at 1 µM: 1 μM compound
T4 construct: All protein kinases were of human origin and encoded full length proteins, unless indicated otherwise; made in house
T4 sequence (Q9H2X6 165-564 limits assumed): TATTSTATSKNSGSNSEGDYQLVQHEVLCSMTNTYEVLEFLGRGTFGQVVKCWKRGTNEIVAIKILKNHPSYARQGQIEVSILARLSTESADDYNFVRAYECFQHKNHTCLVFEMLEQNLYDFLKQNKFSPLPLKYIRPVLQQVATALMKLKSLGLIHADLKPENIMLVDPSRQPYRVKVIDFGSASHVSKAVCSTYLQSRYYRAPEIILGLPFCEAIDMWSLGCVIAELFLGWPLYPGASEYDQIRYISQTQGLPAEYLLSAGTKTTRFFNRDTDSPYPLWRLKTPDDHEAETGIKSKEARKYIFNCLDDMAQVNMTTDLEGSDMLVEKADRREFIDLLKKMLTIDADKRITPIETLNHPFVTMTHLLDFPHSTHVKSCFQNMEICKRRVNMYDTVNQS
Source text: as §1, §2, §3, §4

CK2 = CK2 protein kinase assay; format: biochemical, human; conditions: for residual kinase activity: CK2
Source text: as §1, §2, §3, §4

PKCa = molecular target: T5, PKCa (Homo sapiens, UniProt P17252); experiment: PKCa protein kinase assay; format: biochemical; conditions: for remaining activity at 10 µM: 10 μM compound; for residual kinase activity PKCa: 1 μm compound; for remaining activity at 1 µM: 1 μM compound
T5 construct: All protein kinases were of human origin and encoded full length proteins, unless indicated otherwise; made in house
Source text: as §1, §2, §3, §4

PIM1 = molecular target: T6, PIM1 (Homo sapiens, UniProt P11309); experiment: PIM1 protein kinase assay; format: biochemical; conditions: for remaining activity at 10 µM: 10 μM compound; for residual kinase activity PIM1: 1 μm compound; for remaining activity at 1 µM: 1 μM compound
T6 construct: All protein kinases were of human origin and encoded full length proteins, unless indicated otherwise; made in house
T6 sequence (P11309 whole entry): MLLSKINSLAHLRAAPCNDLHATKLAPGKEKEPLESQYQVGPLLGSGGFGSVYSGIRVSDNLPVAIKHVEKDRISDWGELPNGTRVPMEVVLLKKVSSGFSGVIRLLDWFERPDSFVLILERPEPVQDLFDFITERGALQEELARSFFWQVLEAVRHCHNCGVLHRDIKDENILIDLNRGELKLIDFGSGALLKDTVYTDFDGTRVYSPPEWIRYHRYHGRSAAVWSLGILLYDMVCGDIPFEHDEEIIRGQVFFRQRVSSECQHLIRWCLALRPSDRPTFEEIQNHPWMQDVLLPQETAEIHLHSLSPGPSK
Source text: as §1, §2, §3, §4

EPH A2 = molecular target: T7, EPH A2 (Homo sapiens, UniProt P29317); experiment: EPH A2 protein kinase assay; format: biochemical; conditions: for remaining activity at 10 µM: 10 μM compound; for residual kinase activity EPH A2: 1 μm compound; for remaining activity at 1 µM: 1 μM compound
T7 construct: All protein kinases were of human origin and encoded full length proteins, unless indicated otherwise; made in house
T7 sequence (P29317 591-976 limits assumed): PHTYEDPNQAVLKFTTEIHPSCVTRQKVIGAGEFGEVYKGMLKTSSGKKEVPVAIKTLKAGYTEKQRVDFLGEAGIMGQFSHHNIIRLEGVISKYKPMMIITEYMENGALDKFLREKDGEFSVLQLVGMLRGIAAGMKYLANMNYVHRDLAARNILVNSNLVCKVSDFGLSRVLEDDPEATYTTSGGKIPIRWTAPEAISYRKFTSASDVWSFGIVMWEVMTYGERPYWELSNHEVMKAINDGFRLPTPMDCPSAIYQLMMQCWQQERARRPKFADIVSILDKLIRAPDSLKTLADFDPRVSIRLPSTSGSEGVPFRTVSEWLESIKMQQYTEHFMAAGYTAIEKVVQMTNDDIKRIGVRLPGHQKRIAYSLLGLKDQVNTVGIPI
Source text: as §1, §2, §3, §4

[1] = read-out: residual kinase activity MAPKAP-K2
[2] = read-out: residual kinase activity MST2
[3] = read-out: residual kinase activity PRAK
[4] = read-out: residual kinase activity HIPK2
[5] = read-out: residual kinase activity PKCa
[6] = read-out: residual kinase activity PIM1
[7] = read-out: residual kinase activity EPH A2
[8] = MAPKAP-K2, read-out: residual kinase activity
[9] = MST2, read-out: residual kinase activity
[10] = PRAK, read-out: residual kinase activity
[11] = HIPK2, read-out: residual kinase activity
[12] = PKCa, read-out: residual kinase activity
[13] = PIM1, read-out: residual kinase activity
[14] = EPH A2, read-out: residual kinase activity

| Compound | remaining activity at 10 µM (MAPKAP-K2; [1]) | residual kinase activity MAPKAP-K2 (MAPKAP-K2) | remaining activity at 10 µM (MST2; [2]) | residual kinase activity MST2 (MST2) | remaining activity at 1 µM (MAPKAP-K2; [8]) | remaining activity at 10 µM (MAPKAP-K2; [8]) | remaining activity at 1 µM (MST2; [9]) | remaining activity at 10 µM (MST2; [9]) | remaining activity at 1 µM (PRAK; [10]) | remaining activity at 10 µM (PRAK; [10]) | remaining activity at 1 µM (HIPK2; [11]) | remaining activity at 10 µM (HIPK2; [11]) | residual kinase activity (CK2; 1 μM compound) | residual kinase activity (CK2; 10 μM compound) | remaining activity at 1 µM (PKCa; [12]) | remaining activity at 10 µM (PKCa; [12]) | remaining activity at 1 µM (PIM1; [13]) | remaining activity at 10 µM (PIM1; [13]) | remaining activity at 1 µM (EPH A2; [14]) | remaining activity at 10 µM (EPH A2; [14]) | other results |
| --- | --- | --- | --- | --- | --- | --- | --- | --- | --- | --- | --- | --- | --- | --- | --- | --- | --- | --- | --- | --- | --- |
| O=C(NCCCNc1nc(Nc2cccc(F)c2)ncc1Br)C1CCC1 [Compound A, cyclobutanecarboxylic acid {3-[5-bromo-2-(3-fluoro-phenylamino)-pyrimidin-4-ylamino]-propyl}-amide, reference compound] | 48% | 82% | 6% | 29% | – | – | – | – | – | – | – | – | – | – | – | – | – | – | – | – | remaining activity at 10 µM (PRAK; [3]): 31%; residual kinase activity PRAK (PRAK): 65%; remaining activity at 10 µM (HIPK2; [4]): 12%; residual kinase activity HIPK2 (HIPK2): 58%; residual kinase activity CK2 (CK2; 10 μM compound): 44%; residual kinase activity CK2 (CK2; 1 μm compound): 77%; remaining activity at 10 µM (PKCa; [5]): 49%; residual kinase activity PKCa (PKCa): 94%; remaining activity at 10 µM (PIM1; [6]): 50%; residual kinase activity PIM1 (PIM1): 52%; remaining activity at 10 µM (EPH A2; [7]): 60%; residual kinase activity EPH A2 (EPH A2): 87% |
| O=C(NCCCNc1nc(Nc2cccc(N3CCCC3=O)c2)ncc1C1CC1)c1cccs1 [Example 47, Thiophene-2-carboxylic acid (3-{5-cyclopropyl-2-[3-(2-oxo-pyrrolidin-1-yl)-phenylamino]-pyrimidin-4-ylamino}-propyl)-amide. Hydrochloride salt] | – | – | – | – | 75% | 95% | 84% | 70% | 70% | 76% | 88% | 67% | 80% | 78% | 83% | 69% | 82% | 57% | 47% | 76% | – |
| O=C(NCCCNc1nc(Nc2cccnc2)ncc1C1CC1)c1cccs1 [Example 50, Thiophene-2-carboxylic acid {3-[5-cyclopropyl-2-(pyridin-3-ylamino)-pyrimidin-4-ylamino]-propyl}-amide] | – | – | – | – | 88% | 85% | 73% | 33% | 64% | 64% | 83% | 54% | 72% | 80% | 85% | 70% | 63% | 92% | 88% | 73% | – |
| O=C(NCCCNc1nc(Nc2cccc(F)c2)ncc1C1CC1)C1CCC1 [Example 23, Cyclobutanecarboxylic acid {3-[5-cyclopropyl-2-(3-fluoro-phenylamino)-pyrimidin-4-ylamino]-propyl}-amide] | 86% | 77% | 33% | 73% | 77% | 86% | 73% | 33% | 93% | 96% | 59% | 26% | 111% | 107% | 81% | 87% | 78% | 46% | 71% | 71% | remaining activity at 10 µM (PRAK; [3]): 96%; residual kinase activity PRAK (PRAK): 93%; remaining activity at 10 µM (HIPK2; [4]): 26%; residual kinase activity HIPK2 (HIPK2): 59%; residual kinase activity CK2 (CK2; 10 μM compound): 107%; residual kinase activity CK2 (CK2; 1 μm compound): 111%; remaining activity at 10 µM (PKCa; [5]): 87%; residual kinase activity PKCa (PKCa): 81%; remaining activity at 10 µM (PIM1; [6]): 46%; residual kinase activity PIM1 (PIM1): 78%; remaining activity at 10 µM (EPH A2; [7]): 71%; residual kinase activity EPH A2 (EPH A2): 71% |
